Structures can show the parent of a compound that is named as a salt.
These molecules were tested on T1, 1N4R p-tau (assay: p-tau aggregation modulator screen of 1280-compound library (ThS fluorescence net change over 16 h)). Conditions: not given.
T1 construct: made in house; host or cells: E. coli (PIMAX system)
Type: biochemical
Design: key to PTAI>2SD: *: PTAI>2SD; key to PTAI>3SD: *: PTAI>3SD
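Wherever ThS net change is given: 30 µM compound with 6 µM p-tau over 16 h.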

SMILES	ThS net change
CC(=O)O[C@H]1CC[C@@]2(C)C(=CC[C@@H]3[C@@H]2CC[C@]2(C)C(=O)CC[C@@H]32)C1 [Dehydroisoandosterone 3-acetate]	423
CC(C)NC[C@@H](O)COc1cccc2ccccc12.Cl [(R)-Propranolol hydrochloride]	416
C[C@]12CC[C@@H](O)C[C@@H]1CC[C@@H]1[C@@H]2CC[C@]2(C)C(=O)CC[C@@H]12 [Androsterone]	449
CC(=O)O[C@H]1C[C@@H]2CC[C@@H]3[C@H](CC[C@@]4(C)[C@H]3C[C@H]([N+]3(C)CCCCC3)[C@@H]4OC(C)=O)[C@@]2(C)C[C@@H]1[N+]1(C)CCCCC1 [Pancuronium bromide]	491
Clc1ccc(CCC(Cn2ccnc2)Sc2c(Cl)cccc2Cl)cc1 (stereo not shown) [Butoconazole nitrate]	237
COc1ccc(CCN)cc1OC.Cl [Homoveratrylamine]	439

Same assay, conditions: 1280-compound library screen; ThS fluorescence net change over 16 h

SMILES	ThS net change
C#C[C@]1(O)CC[C@H]2[C@@H]3CCc4cc(OC)ccc4[C@H]3CC[C@@]21C [Ethynylestradiol 3-methyl ether]	406
C=CCSCC1Nc2cc(Cl)c(S(N)(=O)=O)cc2S(=O)(=O)N1 (stereo not shown) [Althiazide]	409
C[N+]1(C)CCC(OC(=O)C(O)(c2ccccc2)C2CCCC2)C1 (stereo not shown) [Glycopyrrolate]	401
Nc1ncn(C2O[C@H](CO)[C@@H](O)[C@H]2O)c(=O)n1 (stereo partly shown) [Azacytidine-5]	405
O=C(O)Cc1ccc(-c2ccccc2)cc1 [Felbinac]	405
O=C(O)CCC(=O)Nc1ccc(S(=O)(=O)Nc2nccs2)cc1 [Succinylsulfathiazole]	382
NS(=O)(=O)c1cc(C2(O)NC(=O)c3ccccc32)ccc1Cl (stereo not shown) [Chlorthalidone]	382
Clc1ccc2nsnc2c1NC1=NCCN1 [Tizanidine HCl]	386
NC(=O)c1cc[n+](CC2=C(C(=O)O)N3C(=O)[C@@H](NC(=O)[C@@H](c4ccccc4)S(=O)(=O)[O-])[C@H]3SC2)cc1 [Cefsulodin sodium salt]	388

Same assay, conditions: 1280-compound library screen; […]

SMILES	ThS net change
OC(c1ccccc1)(c1ccccc1)C1CCNCC1 [Azacyclonol]	400
CC(=O)OCC(=O)NCCCOc1cccc(CN2CCCCC2)c1 [Roxatidine Acetate HCl]	411

Same assay, conditions: flag: p-tau aggregation inhibitor, ThS net change more than 2 SD from mean

SMILES	PTAI>2SD
CN(C)c1ccc(O)c2c1C[C@H]1C[C@H]3[C@H](N(C)C)C(O)=C(C(N)=O)C(=O)[C@@]3(O)C(O)=C1C2=O [Minocycline hydrochloride]	*

Same assay, conditions: flag: p-tau aggregation inhibitor, ThS net change more than 3 SD from mean

SMILES	PTAI>3SD
O=C1c2cccc(O)c2C(=O)c2c(O)cccc21 [1,8-Dihydroxyanthraquinone]	*

Same assay, conditions: library screen, ThS fluorescence net change over 16 h with p-tau

SMILES	ThS net change
O=C1C(O)=C([C@H]2CC[C@H](c3ccc(Cl)cc3)CC2)C(=O)c2ccccc21 [Atovaquone]	266
O=c1[nH]c2ccccc2n1C1CCN(CCCC(c2ccc(F)cc2)c2ccc(F)cc2)CC1 [Pimozide]	274
O=C1c2cccc(O)c2C(=O)c2c(O)cccc21 [1,8-Dihydroxyanthraquinone]	25
CC1COc2c(N3CCN(C)CC3)c(F)cc3c(=O)c(C(=O)O)cn1c23 (stereo not shown) [Ofloxacin]	311
CN(C)CCCN1c2ccccc2Sc2ccccc21 [Promazine hydrochloride]	306
CCn1cc(C(=O)O)c(=O)c2cc3c(cc21)OCO3 [Oxolinic acid]	313
CN(C)c1ccc(O)c2c1C[C@H]1C[C@H]3[C@H](N(C)C)C(O)=C(C(N)=O)C(=O)[C@@]3(O)C(O)=C1C2=O [Minocycline hydrochloride]	121
CN(C)CCC(c1ccccc1)c1ccccn1 (stereo not shown) [Pheniramine maleate]	318
CCN(CC)C(=O)/C(C#N)=C/c1cc(O)c(O)c([N+](=O)[O-])c1 [Entacapone]	199

Same assay, conditions: p-tau aggregation modulator screen of 1280-compound library; ThS fluorescence net change

SMILES	ThS net change
OCCN1C[C@H](O)[C@@H](O)[C@H](O)[C@H]1CO [Miglitol]	372
CN(Cc1cnc2nc(N)nc(N)c2n1)c1ccc(C(=O)NC(CCC(=O)O)C(=O)O)cc1 (racemic) [Amethopterin (R,S)]	373
C[N+]1(CCCCC[N+]2(C)CCCC2)CCCC1.O=C([O-])C(O)C(O)C(=O)O.O=C([O-])C(O)C(O)C(=O)O [Pentolinium bitartrate]	369
CCN(CC)C(C)CN1c2ccccc2Sc2ccccc21 (stereo not shown) [Ethopropazine hydrochloride]	336
COc1cc(OC)c(C(=O)CCCN2CCCC2)c(OC)c1.Cl [Buflomedil hydrochloride]	363
NC(=O)N1c2ccccc2C=Cc2ccccc21 [Carbamazepine]	370
NC[C@H]1O[C@H](O[C@H]2[C@H](O)[C@@H](O[C@H]3O[C@H](CO)[C@@H](O)[C@H](N)[C@H]3O)[C@H](N)C[C@@H]2N)[C@H](O)[C@@H](O)[C@@H]1O [Kanamycin A sulfate]	374
COc1ccc2cc(CCC(C)=O)ccc2c1 [Nabumetone]	357
CN1CCN(CCCN2c3ccccc3Sc3ccc(Cl)cc32)CC1 [Prochlorperazine dimaleate]	357

Same assay, conditions: p-tau aggregation modulator screen of 1280-compound library; […]

SMILES	ThS net change
CC(C)(C)CC(C)(C)c1ccc(OCCOCC[N+](C)(C)Cc2ccccc2)cc1 [Benzethonium chloride]	365
CCCC(C)(COC(N)=O)COC(=O)NC(C)C (stereo not shown) [Carisoprodol]	370

Same assay, conditions: p-tau aggregation modulator screen of the compound library, ThS fluorescence net change

SMILES	ThS net change
Cc1[nH]cnc1CN1CCc2c(c3ccccc3n2C)C1=O [Alosetron hydrochloride]	429
CCOC1O[C@H]([C@@H](COCc2ccccc2)OCc2ccccc2)[C@H](OCc2ccccc2)[C@H]1O (stereo partly shown) [Tribenoside]	690
C=C1c2cccc(O)c2C(=O)C2=C(O)[C@]3(O)C(=O)C(C(N)=O)=C(O)[C@@H](N(C)C)[C@@H]3[C@@H](O)[C@H]12 [Methacycline hydrochloride]	537
COc1cc2c(cc1OC)C(=O)C(CC1CCN(Cc3ccccc3)CC1)C2 (stereo not shown) [Donepezil hydrochloride]	435
CCCCNc1c(C(=O)OCC)c(C)nc2c1cnn2CC.Cl [Tracazolate hydrochloride]	440
CCOc1ccc(Cc2nccc3cc(OCC)c(OCC)cc23)cc1OCC [Ethaverine hydrochloride]	439
CC(C)(C)NC[C@H](O)COc1ccccc1C1CCCC1 [Penbutolol sulfate]	457
CC(=O)O[C@@]12CO[C@@H]1C[C@H](O)[C@@]1(C)C(=O)[C@H](O)C3=C(C)[C@@H](OC(=O)[C@H](O)[C@@H](NC(=O)OC(C)(C)C)c4ccccc4)C[C@@](O)([C@@H](OC(=O)c4ccccc4)[C@H]21)C3(C)C [Docetaxel]	542
CCOC(=O)[C@H](CCc1ccccc1)N[C@@H](C)C(=O)N1Cc2ccccc2C[C@H]1C(=O)O [Quinapril HCl]	417
Cl.Cl.Fc1ccc(C(OCCN2CCN(CCCc3ccccc3)CC2)c2ccc(F)cc2)cc1 [GBR 12909 dihydrochloride]	515
C=CCOC(Cn1ccnc1)c1ccc(Cl)cc1Cl (stereo not shown) [Enilconazole]	461
CCCNC(=O)NS(=O)(=O)c1ccc(Cl)cc1 [Chlorpropamide]	425
CN(C)c1nc(N(C)C)nc(N(C)C)n1 [Altretamine]	414
Cc1cn([C@H]2C[C@H](N=[N+]=[N-])[C@@H](CO)O2)c(=O)[nH]c1=O [Zidovudine, AZT]	448
CO/N=C(\C(=O)N[C@@H]1C(=O)N2C(C(=O)O)=C(C[N+]3(C)CCCC3)CS[C@H]12)c1csc(N)n1 [Cefepime hydrochloride]	418
CC1(O)CCOC(=O)C1 (stereo not shown) [Mevalonic-D, L acid lactone]	438

Source: PMC7539012, “Hyperphosphorylated tau aggregation and cytotoxicity modulators screen identified prescription drugs linked to Alzheimer's disease and cognitive functions” (Scientific Reports, 2020)
